Patent publication US20260216057A1, “PHARMACEUTICAL COMPOSITIONS FOR HERPES VIRUS” (priority 2022, published 2026)
Values belong to the molecule of their own block, whether it stands above or below them.

Legend:
[1] = Example 6: pritelivir (dihydrate) suspension stability and solubility study; type: physicochemical; details: 0.9% NaCl + 0.5% polysorbate 80 vehicle, RT
Experimental: An aqueous suspension of crystalline pritelivir free base (dihydrate) in a 0.9% NaCl+0.5% polysorbate 80 vehicle was prepared as follows: • 1) Vehicle (0.9% w/w NaCl and 0.5% w/w polysorbate 80) was prepared by dissolving NaCl and polysorbate 80 in water. • 2) Excess amounts of pritelivir (dihydrate) were weighed and added to the vehicle to achieve −3 mg/mL suspension. • 3) The suspension was sonicated for 15 minutes, then agitated at 500 rpm at room temperature. • 4) At 24 hours, the suspension was filtrated and the filter cake was dried and analyzed by XRPD. The filtrate was analyzed by HPLC to determine solubility. The HPLC methodology and conditions used to quantify pritelivir in the filtrate are described in Table 11.

recurrent genital HSV-2 = details: 28 days daily oral dosing; pritelivir 100 mg (after 400 mg loading dose), valacyclovir 500 mg; cited from earlier work
[2] = cited from earlier work
recurrent genital herpes = details: oral 100, 200, 400, 1200 mg; patients with recurrent genital herpes; cited from earlier work

solubility at 24 h ([1]; 0.9% NaCl + 0.5% polysorbate 80 aqueous vehicle, aqueous with cosolvent or surfactant or cyclodextrin, thermodynamic from solid, n = 1): 16.5 µg/mL
Insoluble material (solid form by XRPD after solubility experiment) ([1]; 24 hours): Dihydrate
SMILES: Cc1nc(N(C)C(=O)Cc2ccc(-c3ccccn3)cc2)sc1S(N)(=O)=O [Dihydrate, N-methyl-N-(4-methyl-5-sulfamoyl-1,3-thiazol-2-yl)-2-[4-(pyridin-2-yl)phenyl]acetamide]

SMILES: CC(C)[C@H](N)C(=O)OCCOCn1cnc2c(=O)[nH]c(N)nc21 [valacyclovir]
HSV shedding, % of genital swabs analysed (recurrent genital HSV-2): 5.3%

SMILES: Nc1nc2c(ncn2COCCO)c(=O)[nH]1 [acyclovir]
human bioavailability following oral administration [2]: 10-20%

SMILES: Cc1cccc(C)c1N(CC(=O)Nc1ccc(-c2ncon2)cc1)C(=O)C1CCS(=O)(=O)CC1 [amenamevir]
time to lesion healing vs placebo (recurrent genital herpes): only significantly different between the very highest 1200 mg single dose group and the placebo-tested group
